Paper PMC8347134, “Preparation of Antiproliferative Terpene-Alkaloid Hybrids by Free Radical-Mediated Modification of ent-Kauranic Derivatives” (Molecules, 2021)
Where two headings read alike, the source gives them in different places.

Columns and labels:
hTERT RPE-1 = test: Parallel cytotoxicity assay on non-cancerous retina cells; format: cell-based
Experimental: (§1) A parallel cytotoxicity assay was performed on non-cancerous retina cells (hTERT RPE-1) in order to estimate the selectivity of the investigated compounds towards tumor cells. The inhibition of cell proliferation was calculated as IC50 by interpolation based on the semi-log dose response.
(§2) All cell lines were cultured as recommended by the suppliers. Culture media were purchased from Gibco Life Technologies, USA, and supplemented with 10% fetal bovine serum (HyClone, GE Healthcare Life Sciences, Logan, UT, USA). […] All stock solutions were prepared in DMSO.
(§3) After overnight incubation, cells were treated with the test compounds at seven different concentrations ranging from 100 to 6.4 × 10^−3 µM. […] The plates were incubated at 37 °C and monitored for 72 h in an IncuCyte® device (Essen BioScience Inc., Ann Arbor, MI, USA) for real-time imaging. Images were taken every 3 h, with one field imaged per well under 10× magnification. Cell growth was then quantified based on the percent cellular confluence as analysed by the IncuCyte® image analysis software and used to calculate IC50 values by linear interpolation. All tests have been performed in duplicate and the average values have been calculated.

[1] = test system: Z-138 (non-Hodgkin lymphoma); test: Cell proliferation assay (IncuCyte); format: cell-based; conditions: for IC50: Homo sapiens, Z-138, 72 h; for SI Z-138: ratio IC50 hTERT RPE-1 / IC50 Z-138
Experimental: as §1, §2, §3

[2] = test system: HL-60 (acute myeloid leukemia); test: Cell proliferation assay (IncuCyte); format: cell-based; conditions: for IC50: Homo sapiens, HL-60, 72 h; for SI HL-60: ratio IC50 hTERT RPE-1 / IC50 HL-60
Experimental: as §1, §2, §3

[3] = test system: Capan-1 (pancreatic adenocarcinoma); test: Cell proliferation assay (IncuCyte); format: cell-based; conditions: for IC50: Homo sapiens, CAPAN-1, 72 h; for SI Capan-1: ratio IC50 hTERT RPE-1 / IC50 Capan-1
Experimental: as §1, §2, §3

[4] = test system: NCI-H460 (lung carcinoma); test: Cell proliferation assay (IncuCyte); format: cell-based; conditions: for IC50: Homo sapiens, NCI-H460, 72 h; for SI NCI-H460: ratio IC50 hTERT RPE-1 / IC50 NCI-H460
Experimental: as §1, §2, §3

[5] = test system: K-562 (chronic myeloid leukemia); test: Cell proliferation assay (IncuCyte); format: cell-based; conditions: for IC50: Homo sapiens, K562, 72 h; for SI K-562: ratio IC50 hTERT RPE-1 / IC50 K-562
Experimental: as §1, §2, §3

[6] = test system: HCT-116 (colorectal carcinoma); test: Cell proliferation assay (IncuCyte); format: cell-based; conditions: for IC50: Homo sapiens, HCT-116, 72 h; for SI HCT-116: ratio IC50 hTERT RPE-1 / IC50 HCT-116
Experimental: as §1, §2, §3

[7] = test system: DND-41 (acute lymphoblastic leukemia); test: Cell proliferation assay (IncuCyte); format: cell-based; conditions: for IC50: DND41, 72 h; for SI DND-41: ratio IC50 hTERT RPE-1 / IC50 DND-41
Experimental: as §1, §2, §3

[8] = test system: seven different tumor cell lines; test: Proliferation assays, best value over the seven tumor cell lines; format: cell-based; conditions: for SImax: highest selectivity index over the tumor cell lines (Figure 4); for IC50 for retina (hTERT RPE-1) cells fold higher than for cancerous cells: highest selectivity indices
Experimental: as §1, §2, §3

NCI-H460 = test system: NCI-H460; design: method as in earlier work; conditions: reference drugs; cited from earlier work
[9] = hTERT-RPE1, 72 h, duplicate, mean ± deviation
[10] = lowest IC50 over the tumor cell lines (Figure 4), read-out: IC50 min

SMILES | IC50 (hTERT RPE-1; [9]) [µM] | IC50 ([1]; duplicate, mean ± deviation) [µM] | IC50 ([2]; duplicate, mean ± deviation) [µM] | IC50 ([3]; duplicate, mean ± deviation) [µM] | SI Capan-1 [3] | IC50 ([4]; duplicate, mean ± deviation) [µM] | SI NCI-H460 [4] | IC50 ([5]; duplicate, mean ± deviation) [µM] | IC50 ([6]; duplicate, mean ± deviation) [µM] | SI HCT-116 [6] | IC50 ([7]; duplicate, mean ± deviation) [µM] | SI Z-138 [1] | SI DND-41 [7] | SImax [8] | IC50 for retina (hTERT RPE-1) cells fold higher than for cancerous cells [8] | IC50 [8, 10] [µM] | further results
COC(=O)[C@]1(C)CCC[C@@]2(C)[C@@H]3CC[C@@H]4C[C@@]3(CC[C@@H]21)[C@H]1OC(=O)CC=C41 [Compound 22] | 1.4 ± 0.1 | 2.4 ± 1.1 | 3.7 ± 1.3 | 1.3 ± 0.6 | 1.1 | 1.4 ± 0.3 | 1 | 2.5 ± 0.1 | 0.5 ± 0.2 | 2.8 | 2.3 ± 0.3 | – | – | – | – | – | IC50 ([8]; tumor cell lines, read-out: IC50 values): < 1 µM
N.N.[Cl][Pt][Cl] [Cisplatin] | – | – | – | – | – | – | – | – | – | – | – | – | – | – | – | – | IC50 (NCI-H460): 5.33 µM
COC(=O)CCC1(N=[N+]=[N-])C2CCC3C4(C)CCCC(C)(C(=O)OC)C4CCC3(C2)C1O (stereo not shown) [Compound 26] | 25.9 ± 0.3 | 21.6 ± 5.4 | 41.1 ± 15.9 | 8.3 ± 1.1 | 3.1 | 0.6 ± 0.2 | 43.2 | 36.9 ± 0.2 | 9.9 ± 2.7 | 2.6 | 6.6 ± 1.3 | 1.2 | 3.9 | 43.2 | up to 43 fold | 0.6 ± 0.2 | –
COC(=O)[C@]1(C)CCC[C@@]2(C)[C@@H]3CC[C@@H]4C[C@@]3(CC[C@@H]21)C[C@@]4(CCC(=O)O)N=[N+]=[N-] [Compound 14] | 26.2 ± 0.9 | 22.7 | 46.2 ± 9.1 | 44.5 ± 8.3 | – | 31.1 ± 1.6 | – | 41 | 5.8 ± 0.1 | 4.5 | 44.5 ± 4.8 | 1.2 | – | – | – | – | –
CC(=O)O[C@@]12CO[C@@H]1C[C@H](O)[C@@]1(C)C(=O)[C@H](O)C3=C(C)[C@@H](OC(=O)[C@H](O)[C@@H](NC(=O)OC(C)(C)C)c4ccccc4)C[C@@](O)([C@@H](OC(=O)c4ccccc4)[C@H]21)C3(C)C [DT, docetaxel, reference compound] | – | – | – | – | – | – | – | – | – | – | – | – | – | – | – | – | IC50 (hTERT RPE-1; hTERT-RPE1, positive controls, 72 h): 0.0187 ± 0.0048 µM; IC50 ([1]; positive controls): 0.0037 ± 0.0007 µM; IC50 ([2]; positive controls): 0.0043 ± 0.0016 µM; IC50 ([3]; positive controls): 0.0042 ± 0.0018 µM; IC50 ([4]; positive controls): 0.0055 ± 0.0013 µM; IC50 ([5]; positive controls): 0.0052 ± 0.0012 µM; IC50 ([6]; positive controls): 0.0022 ± 0.0008 µM; IC50 ([7]; positive controls): 0.0047 ± 0.0012 µM
COC(=O)C1(C)CCCC2(C)C1CCC13CC(CCC21)C(CCC(=O)O)(N=[N+]=[N-])C3O (stereo not shown) [Compound 24] | 31.7 ± 3.1 | 25.2 ± 0.3 | 49.3 ± 5 | 33.2 ± 7.6 | – | 41.8 ± 5.3 | – | 76.3 ± 1.4 | 18.8 ± 8 | 1.7 | 38.9 ± 4.1 | 1.3 | – | – | – | – | –
COC(=O)C1(C)CCCC2(C)C3CCC4CC3(C=C4CCC#N)CCC12 (stereo not shown) [Compound 16] | 38.2 ± 5.1 | 22.1 ± 11.4 | 33.6 ± 2.6 | 18.1 ± 3.4 | 2.1 | 15.4 ± 6 | 2.5 | 58.4 ± 2.5 | 19 ± 5.7 | 2.0 | 7.8 ± 1 | 1.7 | 4.9 | 4.9 | – | 7.8 ± 1 | SI HL-60 [2]: 1.1
COC(=O)C1(C)CCCC2(C)C3CCC4CC3(CCC12)CC41CCCN1 (stereo not shown) [Compound 13] | 32.2 ± 2 | 9.5 ± 0.9 | 8.3 ± 1.3 | 11.5 ± 1 | 2.8 | 1 ± 0.1 | 32.2 | 3.2 ± 1 | 11.6 ± 0.5 | 2.8 | 6.1 ± 1.1 | 3.4 | 5.3 | 32.2 | up to 43 fold | 1 ± 0.1 | SI HL-60 [2]: 3.9; SI K-562 [5]: 10.1
COC(=O)C1(C)CCCC2(C)C1CCC13CC(CCC21)C1(CCC(=O)N1)C3O (stereo not shown) [Compound 27] | 27.7 ± 4.3 | 39.8 ± 10.9 | 38 ± 11.8 | 3.7 ± 1.7 | 7.5 | 1.9 ± 0.2 | 14.6 | 56.5 ± 2.8 | 4 ± 3.7 | 6.9 | 8.3 ± 2 | – | 3.3 | 14.6 | up to 43 fold | 1.9 ± 0.2 | –
CCOC(=O)CC[C@@]1(N=[N+]=[N-])C[C@@]23CC[C@H]4[C@@](C)(CCC[C@@]4(C)C(=O)OC)[C@@H]2CC[C@@H]1C3 [Compound 11] | 1.8 ± 0.4 | 0.5 ± 0.2 | 3 ± 1.4 | 1.7 ± 0.5 | 1.1 | 1.3 ± 0.1 | 1.4 | 8.8 ± 2.2 | 1 ± 0.4 | 1.8 | 1.4 ± 0.3 | 3.6 | 1.3 | 3.6 | up to 43 fold | 0.5 ± 0.2 | –
COC(=O)C1(C)CCCC2(C)C3CCC4CC3(CCC12)CC41CCC(=O)N1 (stereo not shown) [Compound 12] | 7.6 ± 0.5 | 52 ± 33.4 | 38.3 ± 17.8 | 1.2 ± 0.7 | 6.3 | 1.4 ± 0.1 | 5.4 | 36.4 ± 11.5 | 0.8 ± 0.2 | 9.5 | 21.4 ± 10.1 | – | – | 9.5 | up to 43 fold | 0.8 ± 0.2 | –
CCOC(=O)CCC1=C[C@@]23CC[C@H]4[C@@](C)(CCC[C@@]4(C)C(=O)OC)[C@@H]2CC[C@@H]1C3 [Compound 7] | 29.2 ± 1.2 | 27.6 ± 15.5 | 19.6 ± 7.7 | 37.1 ± 3.9 | – | 12 ± 1.5 | 2.4 | 24.7 ± 11.8 | 30.7 ± 16.4 | – | 36.5 ± 0.7 | 1.1 | – | – | – | – | SI HL-60 [2]: 1.5; SI K-562 [5]: 1.2
CC1(C(=O)O)CCCC2(C)C1CCC13CC(CCC21)C(CCC#N)(N=[N+]=[N-])C3O (stereo not shown) [Compound 25] | 33.6 ± 4.5 | 52 ± 17.4 | > 100 | 6.4 ± 1.5 | 5.3 | 34 ± 2.9 | – | > 100 | 34.4 ± 0.5 | – | 36.4 ± 9.8 | – | – | 5.3 | – | 6.4 ± 1.5 | –
CN[C@@H]1C[C@H]2O[C@@](C)([C@@H]1OC)n1c3ccccc3c3c4c(c5c6ccccc6n2c5c31)C(=O)NC4 [SP, staurosporine, reference compound] | – | – | – | – | – | – | – | – | – | – | – | – | – | – | – | – | IC50 ([2]; positive controls): 0.0091 ± 0.0016 µM; IC50 ([4]; positive controls): 0.0022 ± 0.0008 µM; IC50 ([5]; positive controls): 0.0279 ± 0.0032 µM; IC50 ([7]; positive controls): 0.0086 ± 0.0015 µM
